Measurements taken from patent US20020031483A1, “HAIR TREATMENT COMPOSITION COMPRISING A SUGAR OR CARBOHYDRATE FOR THE PURPOSES OF PARTICIPATING IN OXYGEN CONSUMPTION OF A HAIR METHOD AND USE” (priority 1998, published 2002).
“Also recorded” adds a separate entry of the source. Counter-ions that a name gives are not always drawn.

Legend:
human hair follicles [1] = assay: Evolution of radiolabelled CO2 from radiolabelled substrate by cultured hair follicles; type: cell-based; settings: five follicles per tube, 37° C.
Procedure: Hair follicles were isolated from human scalp skin obtained from four different female subjects; hair follicles were isolated from human scalp skin and placed into a 6 well culture plate at a density of 15 follicles/well in 5 mL complete Williams E medium containing penicillin (50 μg/mL), streptomycin (50 IU/mL), L-glutamine (2 mM), hydrocortisone (10 ng/mL) and insulin (10 μg/mL). In addition a cocktail of amino acids consisting of arginine (0.45 mM) proline (1 mM), glycine (2.6 mM) and alanine (1 mM) was also added since these are though to improve the maintenance of hair follicles in vitro. After an overnight incubation (37° C., 5% CO2 in air) to ensure continued growth following the isolation procedure, follicles were cut to a uniform length and incubated until required.
For each experimental time point, five follicles were transferred to each of 3 eppendorf tubes in triplicate with 10 μL medium. […] After the seals had been removed the medium was sampled for counting the remaining radioactivity (3×10 μL). The KOH solution was analysed by liquid scintillation counting (Beckman LS 60001C) after addition of 18 mL Hionic Fluor (Packard).
Results from the mean of each triplicate control were subtracted from the corresponding mean from the experimental results. These combined results were then analysed by regression. […]

human hair follicles [2] = assay: tissue or blood; type: cell-based; settings: read-out: inhibition of oxygen consumption by the follicles
Procedure: Follicles were isolated from human facelift skin and grown in culture according to the methods described (Philpott et al J.Cell.Sci.97: pp 463-470 1990). For the oxygen consumption experiments a Clarke electrode apparatus (Tank Brothers Limited, Cambridge, England) was used.
The equipment was set up in accordance with the manufacturers instructions, the temperature of the cell being maintained at 37° C. using a circulating water bath. The output of the electrode was recorded using Perkin Elmer Turbochrom 4 data logging software.
The apparatus contains a Teflon membrane in the cell which was changed daily and the cell calibrated and prepared for use as follows. […] After recording this new ‘zero oxygen’ baseline the medium was reoxygenated by bubbling air through and the new baseline recorded. […]
After calibration, a fresh 2 ml sample of William's E medium gassed with 5% carbon dioxide in air was added, the plunger inserted into the cell ensuring that no air bubble was trapped, and the output from the cell recorded to give a rate for oxygen consumption of the cell. […] The new rate of oxygen consumption was recorded for a sufficient time as to enable its accurate determination. […]
From the calibration of the electrode, a curve was derived from which a baseline reading corresponding to zero oxygen level could be derived. […]

O=C(O)CC(O)(CC(=O)O)C(=O)O [citrate, [1,5-^14C]-sodium citrate]
average production of CO2 evolved from metabolism of citrate (human hair follicles [1]; [1,5-14C]-sodium citrate, about 3 μCi in 100 μL medium, up to 12 h): 0.23 (±0.04) μmol CO2 | uptake and metabolism by hair follicles (radiolabelled CO2 evolution), result in words (human hair follicles [1]; radiolabelled substrate in medium): linear increase in the amount of CO2 evolved; also recorded: taken up into hair follicles and used as an energy source

[N-]=[N+]=[N-] [sodium azide]
inhibition at 2000 µM (human hair follicles [2]): 54 to 87%

C[C@]12CC[C@H]3[C@@H](CC[C@]4(O)C[C@@H](O)CC[C@]34C=O)[C@@]1(O)CC[C@@H]2C1=CC(=O)OC1 [strophanthidin, Strophanthidin]
inhibition at 100 µM (human hair follicles [2]; 0.1 mM strophanthidin, 160 follicles in 2 ml medium, 37° C.): 76%
